Among the test systems are Salmonella typhimurium; Staphylococcus aureus; Staphylococcus aureus MR; Candida glabrata 65C; Escherichia coli JM109; Cupriavidus necator H16.
What all share (test): ≥ marks a high value that may be exact or a test limit, other limits are often not marked, values filed in µg/mL are converted to µM
Assay [1] deals with Escherichia coli JCM 1649.
Assay [2] concerns Vibrio parahaemolyticus Vp+1.
The test system of assay [3] is Photobacterium damselae subsp. piscicida Sp 9587.
In assay [4] the test system is Staphylococcus aureus IAM 1011.
For assay [5], the system named is Aeromonas salmonicida NCIMB 1102.
For assay [6], the system named is Bacillus subtilis IAM 1026.
The test system of assay [7] is Shewanella putrefaciens IAM 1509.
The subject of assay [8] is Vibrio anguillarum NCIMB 829.
Assay [9] concerns Pectobacterium carotovorum subsp. carotovorum DSM 30168.
The subject of assay [10] is Pseudomonas syringae pv. syringae DSM 10604.
The subject of assay [11] is Xanthomonas vesicatoria DSM 50861.
The test system of assay [12] is Pseudomonas syringae pv. tomato DC3000.
Assay [13] relates to Clavibacter michiganensis subsp. michiganensis DSM 46294.
The test system of assay [14] is Pseudomonas corrugata DSM 7228.
The test system of assay [15] is Pseudomonas aeruginosa 910.
Assay [16] deals with Staphylococcus aureus ATCC 29213.
Assay [17] relates to Pseudomonas aeruginosa 253.
Assay [18] concerns Pseudomonas aeruginosa 919.
Assay [19] has as its system Escherichia coli ATCC 25922.
For assay [20], the system named is Pseudomonas aeruginosa PAO1.
Assay [21] deals with Staphylococcus epidermidis PIA 8400.
The test system of assay [22] is Pseudomonas aeruginosa ATCC 27853.
For assay [23], the system named is Enterococcus faecalis ATCC 29212.
The test system of assay [24] is Neisseria gonorrhoeae F62.
The subject of assay [25] is Neisseria gonorrhoeae FA19.
Assay [26] relates to Streptococcus sanguinis ATCC 49295.
For assay [27], the system named is Cryptococcus neoformans CN2.
The test system of assay [28] is Streptococcus gordonii ATCC 10558.
Assay [29] has as its system Cryptococcus neoformans ATCC 52817.
Assay [30] relates to Candida glabrata ATCC 90030.
Assay [31] relates to Streptococcus mutans UA159.
Assay [32] concerns Candida albicans ATCC 96112.
Assay [33] relates to Streptococcus mutans GS-5.
Assay [34] has as its system Saccharomyces cerevisiae S288C.
Assay [35] has as its system Escherichia coli BL21(DE3).
Assay [36] concerns Pseudomonas putida GPp104.
The subject of assay [37] is Aspergillus niger CECT 2694.
Assay [38] concerns Fusarium oxysporum f. sp. lycopersici ATCC 201829.
For assay [39], the system named is Rhizopus stolonifer CECT 2344.
Assay [40] concerns Penicillium expansum EPS 26.

≈ marks a conversion by molar mass, not a printed value. Where “and” joins values, the source holds several entries; their conditions need not be identical. Identical values can stand only once.

In the case of `CC[C@H](C)[C@H](NC(=O)[C@H](C)NC(=O)[C@H](Cc1cnc[nH]1)NC(=O)[C@@H](NC(=O)[C@@H](NC(=O)[C@H](Cc1cnc[nH]1)NC(=O)[C@H](Cc1cnc[nH]1)NC(=O)[C@@H](NC(=O)[C@@H](N)Cc1ccccc1)[C@@H](C)CC)[C@@H](C)CC)C(C)C)C(=O)NCC(=O)N[C@@H](CCCN=C(N)N)C(=O)N[C@@H](CC(C)C)C(=O)N[C@@H](Cc1ccccc1)C(N)=O` [FIHHIVHAIGRLF], the minimum inhibitory concentration (MIC) in [1] was no less than 32.1 µM; in assay [2], no less than 32.1 µM; in assay [3] it was 8.01 µM (≈ 12.5 µg/mL); in [4], 2.01 µM (≈ 3.13 µg/mL); in assay [5], 16 µM (≈ 25 µg/mL); in [6], 8.01 µM (≈ 12.5 µg/mL). Also, the MIC against Salmonella typhimurium was no less than 32.1 µM; in assay [7], 4.01 µM (≈ 6.25 µg/mL); in [8], no less than 32.1 µM.
Turning to `CC[C@H](C)[C@H](NC(=O)[C@H](CC(C)C)NC(=O)[C@H](CCCN=C(N)N)NC(=O)[C@H](CCCN=C(N)N)NC(=O)[C@@H](N)CCCCN)C(=O)N[C@@H](Cc1ccccc1)C(=O)N[C@@H](CCCN=C(N)N)C(=O)N[C@H](C(=O)N[C@@H](CC(C)C)C(=O)N[C@@H](CCCCN)C(=O)N[C@@H](CC(C)C)C(=O)N[C@@H](Cc1ccccc1)C(=O)N[C@@H](Cc1ccccc1)C(=O)N[C@@H](CCCN=C(N)N)C(=O)N[C@@H](Cc1ccccc1)C(=O)N[C@@H](CC(C)C)C(=O)N[C@H](C(=O)N[C@@H](CCCCN)C(=O)N[C@@H](CCCCN)C(=O)N[C@@H](CCCN=C(N)N)C(N)=O)C(C)C)[C@@H](C)CC` [KRRLIFRILKLFFRFLVKKR], the MIC was 3.73 µM (≈ 10 µg/mL) in assay [9]; 3.73 µM (≈ 10 µg/mL) in assay [10]; 0.933 µM (≈ 2.5 µg/mL) in assay [11]; 3.73 µM (≈ 10 µg/mL) in assay [12]; 0.373 µM (≈ 1 µg/mL) in [13]; 1.87 µM (≈ 5 µg/mL) in [14].
`CC[C@H](C)[C@H](NC(=O)[C@H](CCCN=C(N)N)NC(=O)[C@H](Cc1c[nH]c2ccccc12)NC(=O)[C@H](CCCN=C(N)N)NC(=O)[C@H](CCCN=C(N)N)NC(=O)[C@@H](N)CCCCN)C(=O)N[C@@H](Cc1c[nH]c2ccccc12)C(=O)N[C@@H](CC(C)C)C(=O)N[C@H](C(N)=O)C(C)C` [KRRWRIWLV]: the MIC in [15] turned out to be 8 µM (≈ 10.5 µg/mL); in [16], 6.09 µM (≈ 7.99 µg/mL); in assay [17], 5.66 µM (≈ 7.42 µg/mL); in assay [18], 4 µM (≈ 5.25 µg/mL); in [19], 6.09 µM (≈ 7.99 µg/mL); in the assay with Staphylococcus aureus, 6.09 µM (≈ 7.99 µg/mL). Besides, the MIC is 4 µM (≈ 5.25 µg/mL) in assay [20]; 3.05 µM (≈ 4 µg/mL) in assay [21]; 13 µM and 6.09 µM in assay [22]; 25.1 µM (≈ 33 µg/mL) in assay [23]; 13 µM and 25.1 µM against Staphylococcus aureus MR.
On to `CC(C)C[C@H](N)C(=O)N[C@H](C(=O)N[C@@H](Cc1ccc(O)cc1)C(=O)N[C@H]1CSSC[C@@H](C(=O)N[C@H](C(=O)N[C@H](C(=O)N[C@H](C(N)=O)C(C)C)[C@@H](C)O)C(C)C)NC(=O)[C@H](Cc2ccccc2)NC(=O)[C@H](CCCN=C(N)N)NC(=O)[C@H](CCCN=C(N)N)NC(=O)[C@H](CCCN=C(N)N)NC1=O)[C@@H](C)O` [LTYCRRRFCVTV], for which the MIC was determined as 0.45 µM (≈ 0.681 µg/mL) in [24] and 1.37 µM (≈ 2.07 µg/mL) in [25].
On to `CC(C)C[C@H](NC(=O)[C@H](CS)NC(=O)[C@H](CCCCN)NC(=O)[C@H](Cc1ccc(O)cc1)NC(=O)[C@H](CO)NC(=O)[C@H](CCCCN)NC(=O)[C@@H](N)CCCN=C(N)N)C(=O)N[C@@H](Cc1cnc[nH]1)C(=O)N[C@@H](CCCCN)C(=O)N[C@@H](CCCN=C(N)N)C(=O)N[C@@H](CS)C(=O)N[C@@H](CCCN=C(N)N)C(=O)O` [RKSYKCLHKRCR], for which the MIC in assay [26] was no less than 74.4 µM; in assay [27], 1.98 µM (≈ 3.13 µg/mL); in [28] it was no less than 54.1 µM; in the assay with Candida glabrata 65C, 3.96 µM (≈ 6.25 µg/mL); in assay [29], 3.96 µM (≈ 6.25 µg/mL); in assay [30], 15.8 µM (≈ 25 µg/mL). For the same molecule, the minimal inhibitory concentration (MIC) in assay [31] is 30.4 µM (≈ 48 µg/mL); in [32], 3.96 µM (≈ 6.25 µg/mL); in assay [33] it was no less than 37.2 µM; in assay [34] it was 3.96 µM (≈ 6.25 µg/mL).
Turning to `CC[C@H](C)[C@H](NC(=O)[C@H](Cc1ccc(O)cc1)NC(=O)[C@@H](NC(=O)[C@@H]1CCCN1C(=O)[C@H](CCCN=C(N)N)NC(=O)[C@H](CCCN=C(N)N)NC(=O)[C@@H](NC(=O)[C@@H](N)CCCN=C(N)N)C(C)C)C(C)C)C(=O)N1CCC[C@H]1C(=O)N[C@@H](CCC(N)=O)C(=O)N1CCC[C@H]1C(=O)N[C@@H](CCCN=C(N)N)C(=O)N1CCC[C@H]1C(=O)N1CCC[C@H]1C(=O)N[C@@H](Cc1cnc[nH]1)C(=O)N1CCC[C@H]1C(=O)N[C@@H](CCCN=C(N)N)C(=O)N[C@@H](CC(C)C)C(=O)O` [RVRRPVYIPQPRPPHPRL], the MIC against Escherichia coli JM109 came out at 2.5 µM (≈ 5.59 µg/mL); in the assay with Cupriavidus necator H16 it was 10 µM (≈ 22.3 µg/mL); in assay [35] it was 0.313 µM (≈ 0.699 µg/mL); in assay [36], 3.13 µM (≈ 6.99 µg/mL).
For `CC[C@H](C)[C@H](NC(=O)[C@H](CCCCN)NC(=O)[C@H](CCCCN)NC(=O)[C@H](Cc1ccccc1)NC(=O)[C@H](CC(C)C)NC(=O)[C@H](CCCCN)NC(=O)[C@@H](N)Cc1c[nH]c2ccccc12)C(=O)N[C@@H](CC(C)C)C(=O)N[C@@H](CCCCN)C(=O)N[C@@H](CCCCN)C(=O)N[C@@H](CC(C)C)C(N)=O` [WKLFKKILKKL], the MIC is 22.4 µM (≈ 32.3 µg/mL) in assay [37], 1.73 µM (≈ 2.5 µg/mL) in [38], no less than 35.4 µM in assay [39] and no less than 70.7 µM in [40].
